Test results from publication PMC7532004, “Site-specific effects of neurosteroids on GABAA receptor activation and desensitization” (eLife, 2020).
Read-outs that look alike come from different tables or passages of the source.

Tests used:
α1β3 GABAAR WT = biological target: T1, α1β3 GABAAR WT (Homo sapiens, UniProt P14867+P28472); experiment: [3H]muscimol binding to HEK cell membranes (neurosteroid modulation and isotherms), WT receptor; settings: for Emax (% of control) of [3H]muscimol binding: 100% means no effect; for Bmax of [3H]muscimol binding isotherm in the presence of the modulator: etomidate 100 μM, 3α5αP 30 μM, KK148 30 μM, control 9.8 ± 0.8
T1 construct: inserted between the fourth and fifth residues of the mature peptide; photolabeling full-length heteropentameric GABAARs in native membranes; expressed in transfected cells
T1 sequence (P14867 28-456): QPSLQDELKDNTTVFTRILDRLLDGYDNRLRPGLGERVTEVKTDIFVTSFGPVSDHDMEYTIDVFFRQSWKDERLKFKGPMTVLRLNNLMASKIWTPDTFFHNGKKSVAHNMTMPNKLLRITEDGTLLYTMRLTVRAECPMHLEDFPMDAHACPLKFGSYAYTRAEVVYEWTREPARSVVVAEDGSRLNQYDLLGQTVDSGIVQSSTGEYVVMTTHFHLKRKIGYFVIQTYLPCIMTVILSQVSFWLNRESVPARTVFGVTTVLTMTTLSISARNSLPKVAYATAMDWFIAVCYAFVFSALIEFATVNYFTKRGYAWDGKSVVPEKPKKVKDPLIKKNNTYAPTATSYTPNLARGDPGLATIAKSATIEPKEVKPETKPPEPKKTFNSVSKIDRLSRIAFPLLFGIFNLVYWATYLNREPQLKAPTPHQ
T1 sequence (P28472 26-473): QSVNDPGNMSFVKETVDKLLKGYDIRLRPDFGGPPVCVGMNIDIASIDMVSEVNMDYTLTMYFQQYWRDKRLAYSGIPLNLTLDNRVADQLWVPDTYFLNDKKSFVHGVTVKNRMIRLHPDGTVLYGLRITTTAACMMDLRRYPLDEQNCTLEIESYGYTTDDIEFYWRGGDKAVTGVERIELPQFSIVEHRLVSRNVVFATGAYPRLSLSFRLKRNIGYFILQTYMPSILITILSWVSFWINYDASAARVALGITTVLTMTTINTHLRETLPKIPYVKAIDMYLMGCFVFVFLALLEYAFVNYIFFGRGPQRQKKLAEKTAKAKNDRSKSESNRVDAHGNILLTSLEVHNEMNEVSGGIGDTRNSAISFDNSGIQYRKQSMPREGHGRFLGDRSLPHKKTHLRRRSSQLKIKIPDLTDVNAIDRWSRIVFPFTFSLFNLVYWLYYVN
Experimental: Stably transfected cells were plated into dishes. After reaching 50% confluence, GABAA receptors were expressed by inducing cells with 1 μg/ml of doxycycline with the addition of 5 mM sodium butyrate. Cells were harvested 48 to 72 hr after induction. HEK cells, after induction, were grown to 100% confluence, harvested and washed with 10 mM potassium phosphate, 100 mM potassium chloride (pH 7.5) plus protease inhibitors (Sigma-Aldrich, St. Louis, MO) two times. The cells were collected by centrifugation at 1,000 g at 4°C for 5 min. The cells were homogenized with a glass mortar and a Teflon pestle for ten strokes on ice. The pellet containing the membrane proteins was collected after centrifugation at 20,000 g at 4°C for 45 min and resuspended in a buffer containing 10 mM potassium phosphate, 100 mM potassium chloride (pH 7.5). The protein concentration was determined with micro-BCA protein assay and membranes were stored at −80°C.
[^3H]muscimol-binding assays were performed using a previously described method ([Chen et al., 2019]). […] Assay tubes were incubated for 1 hr on ice in the dark. […] Membranes were collected on Whatman/GF-C glass filter papers using a Brandel cell harvester (Gaithersburg, MD). To perform [^3H]muscimol binding isotherms, 100 μg/ml aliquots of membrane protein were incubated with 0.3 nM–1 μM [^3H]muscimol for 1 hr on ice in the dark. The specific activity for [^3H]muscimol concentrations from 30 nM to 1 μM was reduced to 2 Ci/mmol by dilution with nonradioactive muscimol. The membranes were collected on Whatman/GF-B glass filter papers using a vacuum manifold. […] For [^3H]muscimol-binding experiments examining competitive interactions between neurosteroids, the combined neurosteroids (0.3 μM 3α5αP or 3 μM KK148 ±30 μM KK150) or the same volume of dimethyl sulfoxide (DMSO) were added to the membranes which were then incubated with 3 nM [^3H]muscimol on ice for 1 hr. Time courses of neurosteroid [^3H]muscimol binding enhancement were examined by adding 10 µM of neurosteroids (3α5αP, 3β5αP) to membranes that had been fully equilibrated with 3 nM [^3H]muscimol for 1 hr on ice; binding was then measured as a function of time at 1, 3, 10, 30, 60 min. The membranes were collected on Whatman/GF-B glass filter papers using a vacuum manifold. Radioactivity bound to the filters was measured by liquid scintillation spectrometry using Bio-Safe II (Research Products International, Mount Prospect, IL).

α1(V256S)β3 GABAAR = α1(V256S)β3 GABAAR (UniProt P28472+P62813, V283S); experiment: Two-electrode voltage clamp in Xenopus laevis oocytes, V256S mutant; format: cell-based; set-up: expressed in transfected cells; host or cells: Xenopus laevis oocytes injected with cRNA; settings: for % of desensitization (reduction of steady-state current): 1 mM GABA
Chain of α1(V256S)β3 GABAAR (P62813 28-455 V283S, one chain of several): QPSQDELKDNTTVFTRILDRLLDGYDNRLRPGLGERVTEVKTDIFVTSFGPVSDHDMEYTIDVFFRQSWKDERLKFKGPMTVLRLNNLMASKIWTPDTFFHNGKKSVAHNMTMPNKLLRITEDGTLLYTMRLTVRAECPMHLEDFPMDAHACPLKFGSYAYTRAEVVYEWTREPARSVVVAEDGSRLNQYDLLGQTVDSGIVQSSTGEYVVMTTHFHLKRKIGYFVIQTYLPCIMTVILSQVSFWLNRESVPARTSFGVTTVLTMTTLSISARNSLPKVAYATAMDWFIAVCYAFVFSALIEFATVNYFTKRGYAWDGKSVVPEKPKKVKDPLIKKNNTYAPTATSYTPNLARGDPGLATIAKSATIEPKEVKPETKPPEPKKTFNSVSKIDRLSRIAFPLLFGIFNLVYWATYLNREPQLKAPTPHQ
Experimental: The wild-type and mutant α1β3 GABAAR were expressed in oocytes from the African clawed frog (Xenopus laevis). Frogs were purchased from Xenopus 1 (Dexter, MI), and housed and cared for in a Washington University Animal Care Facility under the supervision of the Washington University Division of Comparative Medicine. Harvesting of oocytes was conducted under the Guide for the Care and Use of Laboratory Animals as adopted and promulgated by the National Institutes of Health. The animal protocol (No. 20180191) was approved by the Animal Studies Committee of Washington University in St. Louis. The oocytes were injected with a total of 12 ng cRNA. The ratio of cRNAs was 5:1 ratio (α1:β3) to minimize the expression of β3 homomeric receptors. Following injection, the oocytes were incubated in ND96 (96 mM NaCl, 2 mM KCl, 1.8 mM CaCl2, 1 mM MgCl2, 5 mM HEPES; pH 7.4) with supplements (2.5 mM Na pyruvate, 100 U/ml penicillin, 100 μg/ml streptomycin and 50 μg/ml gentamycin) at 16°C for 2 days prior to conducting electrophysiological recordings. The electrophysiological recordings were conducted at room temperature using standard two-electrode voltage clamp. The oocytes were clamped at −60 mV. The chamber (RC-1Z, Warner Instruments, Hamden, CT) was perfused with ND96 at 5–8 ml/min. Solutions were gravity-applied from 30 ml glass syringes with glass luer slips via Teflon tubing. The current responses were amplified with an OC-725C amplifier (Warner Instruments, Hamden, CT), digitized with a Digidata 1200 series digitizer (Molecular Devices), and stored using pClamp (Molecular Devices). Current traces were analyzed with Clampfit (Molecular Devices). […] The stock solution of muscimol was made at 20 mM in ND96 and stored at 4°C. The steroids were dissolved in DMSO at 10–20 mM and stored at room temperature.

[1] = WT α1β3, 3 nM [3H]muscimol, 1 hr on ice, read-out: EC50 for modulation of [3H]muscimol binding

With `CC(=O)[C@H]1CC[C@H]2[C@@H]3CC[C@H]4C[C@H](O)CC[C@]4(C)[C@H]3CC[C@]12C` [3α5αP, allopregnanolone] the EC50 (α1β3 GABAAR WT) was 240 ± 40 nM, the “Hill slope for modulation of [3H]muscimol binding” value (from here on “Hill slope for modulation”) (α1β3 GABAAR WT; WT α1β3, 3 nM [3H]muscimol) was 1.10 ± 0.14 and the “Emax (% of control) of [3H]muscimol binding” value (α1β3 GABAAR WT; WT α1β3, 3 nM [3H]muscimol) was 374.1 ± 11.1 % of control. The “Bmax of [3H]muscimol binding isotherm in the presence of the modulator” value (α1β3 GABAAR WT; WT α1β3) was 10.3 ± 0.7 pmol/mg and the “Inhibitory effect on steady-state current in the V256S mutant” value (α1(V256S)β3 GABAAR; 3 μM 3α5αP, 1 mM GABA + 40 μM pentobarbital) was “eliminated”.

`CC(=O)[C@H]1CC[C@H]2[C@@H]3CC[C@H]4C[C@@H](O)CC[C@]4(C)[C@H]3CC[C@]12C` [3β5αP, epi-allopregnanolone] was tested, and the EC50 (α1β3 GABAAR WT) was 260 ± 70 nM, the “Time constant (τ) of enhancement of [3H]muscimol binding” value (α1β3 GABAAR WT; 10 µM neurosteroid added to membranes equilibrated with 3 nM [3H]muscimol, 4°C) was 3.97 ± 0.15 min and the “Hill slope for modulation” value (α1β3 GABAAR WT; WT α1β3, 3 nM [3H]muscimol) was 0.89 ± 0.26. The “Emax (% of control) of [3H]muscimol binding” value (α1β3 GABAAR WT; WT α1β3, 3 nM [3H]muscimol) was 195.6 ± 5.7 % of control and the “% of desensitization (reduction of steady-state current)” value (α1(V256S)β3 GABAAR) was “completely eliminated”.

With `C#CCCO[C@H]1CC[C@H]2[C@@H]3CC[C@H]4CC5(CC[C@]4(C)[C@H]3CC[C@]12C)N=N5` [KK148] the “Hill slope for modulation” value (α1β3 GABAAR WT; WT α1β3, 3 nM [3H]muscimol) was 1.36 ± 0.16, the “Emax (% of control) of [3H]muscimol binding” value (α1β3 GABAAR WT; WT α1β3, 3 nM [3H]muscimol) was 431.0 ± 19.5 % of control and the EC50 (α1β3 GABAAR WT; [1]) was 2400 ± 360 nM. For the same compound, the “Bmax of [3H]muscimol binding isotherm in the presence of the modulator” value (α1β3 GABAAR WT; WT α1β3) was 10.8 ± 0.9 pmol/mg and the “% of desensitization (reduction of steady-state current)” value (α1(V256S)β3 GABAAR) was 0%.

For `C#CCCO[C@@H]1CC[C@H]2[C@@H]3CC[C@H]4CC5(CC[C@]4(C)[C@H]3CC[C@]12C)N=N5` [KK150], the “Effect on enhancement of [3H]muscimol binding by 3α5αP and KK148” value (α1β3 GABAAR WT; 30 μM KK150 with 0.3 μM 3α5αP or 3 μM KK148, 3 nM [3H]muscimol) was “inhibited”, the “Hill slope for modulation” value (α1β3 GABAAR WT; WT α1β3, 3 nM [3H]muscimol) was 1.12 ± 0.42 and the “Emax (% of control) of [3H]muscimol binding” value (α1β3 GABAAR WT; WT α1β3, 3 nM [3H]muscimol) was 142.5 ± 3.9 % of control. It also gave an EC50 (α1β3 GABAAR WT; [1]) of 2760 ± 2320 nM.

For `NCc1cc(=O)[nH]o1` [muscimol], the “Bmax of [3H]muscimol binding isotherm” value (α1β3 GABAAR WT; WT α1β3) was 12.1 ± 1.4 pmol/mg and the Kd (α1β3 GABAAR WT; WT α1β3, 0.3 nM–1 μM [3H]muscimol, read-out: Kd of [3H]muscimol binding isotherm) was 48.1 ± 4 nM.
